Experimental data reported in patent publication US4772586A, “Novel derivatives of arginine vasopressin antagonists” (Medical College of Ohio, priority 1986, dated 1988).
*1 amine or outer side, *2 acyl side, *3 side chain or, on linkers, in order; H or OH if unused. Where a SMILES comes first, the peptide text is derived from it. Bridges are numbered along the chain shown (N, C = ends). Where no end group is shown, it is not given here. [ ]: non-standard residue; d: D form. The star is where a group is joined. X1 = O=C(CC1(S[*:2])CCCCC1)[*:1]; NHCH2CH2OH = OCCN*

What was measured:
vasopressor response = assay: Vasopressor (VP) agonistic activity; format: in vivo; conditions: Table 1; vasopressor agonism; ^+ = weak partial agonistic activity not clearly related to dose
[1] = test system: ethanol-anesthesized water-loaded rats; assay: Activity as antidiuretic agonists, intravenous injection; format: in vivo; conditions: for Agonistic Activities ADH: Table 1, antidiuretic agonism, i.v., ^+ = weak partial agonistic activity not clearly related to dose
Experimental: Activity as antidiuretic agonists was determined by intravenous injection of the compounds being evaluated in ethanol-anesthesized water-loaded rats in accordance with Sawyer, Endocrinology, vol. 63 (1958) at 694. Antagonism of the antidiuretic response to subsequent injections of arginine vasopressin was tested by the method of Sawyer et al., Science, vol. 212 (1981) at 49.

[2] = test system: vasopressor response to arginine vasopressin; assay: Antagonism to the vasopressor response (Anti-VP); format: in vivo; conditions: for Anti-VP pA2 / Anti-VP Potency pA2: estimated in vivo pA2
Procedure, shortened: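 In vivo antagonism of arginine vasopressin pressor response per Dyckes et al. Effective dose (nmol/kg) is the antagonist dose making the response to 2x agonist units, injected 20 min later, equal that to 1x units. pA2 is the negative log of effective dose divided by 67 ml/kg distribution volume.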

[3] = test system: antidiuretic response to arginine vasopressin; assay: Antagonism of the antidiuretic response to arginine vasopressin (Anti-ADH); format: in vivo, rats; conditions: for Anti-ADH Potency pA2: estimated in vivo pA2; for Anti-ADH pA2: Table 1, estimated in vivo pA2 = negative log of effective dose divided by volume of distribution (67 ml/kg)
Procedure, shortened: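 Compounds were given intravenously to ethanol-anesthetized, water-loaded rats, followed by arginine vasopressin challenge. Effective dose (nmol/kg) is the antagonist dose that reduces the response to 2x units of agonist, given 20 min later, to the response to 1x units. pA2 is the negative log of effective dose divided by an estimated 67 ml/kg distribution volume.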

9-desglycinamide-arginine vasopressin (CYFQNCPR; disulfide 1-6 (inferred); ends not checked; UniProt P01185 20-27, looked up, fragment) [desGly^9 (NH2)AVP]
Agonistic Activities VP (vasopressor response): ~ 0.02 units/mg | Agonistic Activities ADH [1]: 5.6 ± 1.1 units/mg

9-desglycine-argoinine vasopressin (CYFQNCPR; disulfide 1-6 (inferred); ends not checked; UniProt P01185 20-27, looked up, fragment) [desGly^9 AVP]
Anti-VP ED ([2]; Table 1, effective dose): 68 ± 16 nmol/kg | Anti-VP pA2 ([2]; Table 1): 6.09 ± 0.10 | Agonistic Activities VP (vasopressor response): < 0.05 units/mg | Agonistic Activities ADH [1]: 164 ± 4 units/mg

CC[C@H](C)[C@@H]1NC(=O)[C@H](Cc2ccccc2)NC(=O)[C@@H](Cc2ccccc2)NC(=O)CC2(CCCCC2)SSC[C@@H](C(=O)N2CCC[C@H]2C(=O)N[C@@H](CCCNC(=N)N)C(=O)N[C@H](C)C(N)=O)NC(=O)[C@H](CC(N)=O)NC1=O [D-Ala(NH2), [1-(beta-mercapto-beta,beta-cyclopentamethylenepropionic acid), 2-D-phenylalanine, 4-isoleucine, 9-D-alaninamide]-arginine vasopressin] ([dF]FINCPR[dA]-NH2; linker N-5 via X1)
Anti-VP Potency pA2 ([2]; Table 2): 7.55 ± 0.05 | Anti-ADH Potency pA2 ([3]; Table 2): 7.38 ± 0.08

NC(=O)CC[C@@H]1NC(=O)[C@H](Cc2ccccc2)NC(=O)[C@H](Cc2ccc(O)cc2)NC(=O)[C@@H](N)CSSC[C@@H](C(=O)N2CCC[C@H]2C(=O)N[C@@H](CCCN=C(N)N)C(=O)NCC(N)=O)NC(=O)[C@H](CC(N)=O)NC1=O [AVP, arginine vasopressin]
Agonistic Activities VP (vasopressor response): 382 ± 5 units/mg | Agonistic Activities ADH [1]: 330 ± 23 units/mg

CCOc1ccc(C[C@H]2NC(=O)CC3(CCCCC3)SSC[C@@H](C(=O)N3CCC[C@H]3C(=O)N[C@@H](CCCNC(=N)N)C(=O)N[C@@H](C)C(=O)NC)NC(=O)[C@H](CC(N)=O)NC(=O)[C@H](C(C)C)NC(=O)[C@H](Cc3ccccc3)NC2=O)cc1 [[1-(beta-mercapto-beta,beta-cyclopentamethylenepropionic acid), 2-D-(O-ethyl)tyrosine, 4-valine, 9-alanine-N-methylamide]-arginine vasopressin] ([dY](Et)FVNCPRA-NHMe; linker N-5 via X1)
Anti-VP Potency pA2 ([2]; Table 4, ^+ = mixed): 8.17 ± 0.04 | Anti-ADH Potency pA2 ([3]; Table 4): 7.92 ± 0.06

COc1ccc(C[C@@H]2NC(=O)CC3(CCCCC3)SSC[C@@H](C(=O)N3CCC[C@H]3C(=O)N[C@@H](CCCNC(=N)N)C(=O)N[C@@H](C)C(N)=O)NC(=O)[C@H](CC(N)=O)NC(=O)[C@H](CCC(N)=O)NC(=O)[C@H](Cc3ccccc3)NC2=O)cc1 [Example 9(b), [1-(beta-mercapto-beta,beta-cyclopentamethylenepropionic acid), 2-(O-methyl)tyrosine, 9-alaninamide]-argine vasopressin] (Y(Me)FQNCPRA-NH2; linker N-5 via X1)
Anti-VP: pA2 ([2]; text after Table 2): 8.74±0.08 | Anti-ADH: pA2 ([3]; text after Table 2): about 6.0

CC[C@H](C)[C@@H]1NC(=O)[C@H](Cc2ccccc2)NC(=O)[C@@H](Cc2ccccc2)NC(=O)CC2(CCCCC2)SSC[C@@H](C(=O)N2CCC[C@H]2C(=O)N[C@@H](CCCNC(=N)N)C(=O)N[C@H](C(N)=O)[C@@H](C)O)NC(=O)[C@H](CC(N)=O)NC1=O [Thr(NH2), [1-(beta-mercapto-beta,beta-cyclopentamethylenepropionic acid), 2-D-phenylalanine, 4-isoleucine, 9-threoinamide]-arginine vasopressin] ([dF]FINCPRT-NH2; linker N-5 via X1)
Anti-VP Potency pA2 ([2]; Table 2): 7.64 ± 0.11 | Anti-ADH Potency pA2 ([3]; Table 2): 7.39 ± 0.04

COc1ccc(C[C@@H]2NC(=O)CC3(CCCCC3)SSC[C@@H](C(=O)N3CCC[C@H]3C(=O)N[C@@H](CCCNC(=N)N)C(=O)O)NC(=O)[C@H](CC(N)=O)NC(=O)[C@H](CCC(N)=O)NC(=O)[C@H](Cc3ccccc3)NC2=O)cc1 [desGly(NH2)^9 d(CH2)5 [Tyr(Me)^2]AVP] (Y(Me)FQNCPR-OH; linker N-5 via X1)
Anti-VP pA2 ([2]; Table 1): 8.46 ± 0.05 | Anti-ADH pA2 [3]: ~ 5.4

CCOc1ccc(C[C@H]2NC(=O)CC3(CCCCC3)SSC[C@@H](C(=O)N3CCC[C@H]3C(=O)N[C@@H](CCCNC(=N)N)C(N)=O)NC(=O)[C@H](CC(N)=O)NC(=O)[C@H](C(C)C)NC(=O)[C@H](Cc3ccccc3)NC2=O)cc1 [desGly^9 d(CH2)5 [D-Tyr(Et)^2]VAVP, [1-(beta-mercapto-beta,beta-cyclopentamethylenepropionic acid), 2-D-(O-ethyl)tyrosine, 4-valine, 9-desglycine]-arginine vasopressin] ([dY](Et)FVNCPR-NH2; linker N-5 via X1)
Anti-VP pA2 ([2]; Table 1): 8.17 ± 0.04 | Anti-ADH pA2 [3]: 7.69 ± 0.08

deamido-arginine vasopressin (CYFQNCPRG-OH; disulfide 1-6 (inferred); ends not checked; UniProt P01185 20-28, looked up) [AVP-acid, purchased from Bachem, Inc; alternatively, vasopressinoic acid]
Agonistic Activities VP (vasopressor response): < 0.03 units/mg | Agonistic Activities ADH [1]: 4.7 ± 0.6 units/mg | antidiuretic character in vivo ([1]; Table 1 footnote b): antidiuretic agonist in vivo

CC[C@H](C)[C@@H]1NC(=O)[C@H](Cc2ccccc2)NC(=O)[C@@H](Cc2ccccc2)NC(=O)CC2(CCCCC2)SSC[C@@H](C(=O)N2CCC[C@H]2C(=O)N[C@@H](CCCNC(=N)N)C(=O)N[C@@H](C)C(N)=O)NC(=O)[C@H](CC(N)=O)NC1=O [Ala(NH2), [1-(beta-mercapto-beta,beta-cyclopentamethylenepropionic acid), 2-D-phenylalanine, 4-isoleucine, 9-alaninamide]-arginine vasopressin] ([dF]FINCPRA-NH2; linker N-5 via X1)
Anti-VP Potency pA2 ([2]; Table 2): 7.67 ± 0.04 | Anti-ADH Potency pA2 ([3]; Table 2): 8.38 ± 0.13

CC[C@H](C)[C@@H]1NC(=O)[C@H](Cc2ccccc2)NC(=O)[C@@H](Cc2ccccc2)NC(=O)CC2(CCCCC2)SSC[C@@H](C(=O)N2CCC[C@H]2C(=O)N[C@@H](CCCNC(=N)N)C(=O)NCC(=O)NCCO)NC(=O)[C@H](CC(N)=O)NC1=O [[1-(beta-mercapto-beta,beta-cyclopentamethylenepropionic acid), 2-D-phenylalanine, 4-isoleucine, 9-glycine-N-(beta-hydroxy)ethylamide]-arginine vasopressin] ([dF]FINCPRG-NHCH2CH2OH; linker N-5 via X1)
Anti-VP Potency pA2 ([2]; Table 4, ^+ = mixed): 6.92 ± 0.07 | Anti-ADH Potency pA2 ([3]; Table 4): 8.20 ± 0.12

CC(C)[C@@H]1NC(=O)[C@H](Cc2ccccc2)NC(=O)[C@@H](Cc2ccccc2)NC(=O)CC2(CCCCC2)SSC[C@@H](C(=O)N2CCC[C@H]2C(=O)N[C@@H](CCCNC(=N)N)C(N)=O)NC(=O)[C@H](CC(N)=O)NC1=O [desGly^9 d(CH2)5 [D-Phe^2]VAVP, [1-(beta-mercapto-beta,beta-cyclopentamethylenepropionic acid), 2-D-phenylalanine, 4-valine, 9-desglycine]-arginine vasopressin] ([dF]FVNCPR-NH2; linker N-5 via X1)
Anti-VP pA2 ([2]; Table 1): 8.15 ± 0.03 | Anti-ADH pA2 [3]: 8.09 ± 0.08

CCOc1ccc(C[C@H]2NC(=O)CC3(CCCCC3)SSC[C@@H](C(=O)N3CCC[C@H]3C(=O)N[C@@H](CCCNC(=N)N)C(=O)O)NC(=O)[C@H](CC(N)=O)NC(=O)[C@H](C(C)C)NC(=O)[C@H](Cc3ccccc3)NC2=O)cc1 [desGly(NH2)^9 d(CH2)5 [D-Tyr(Et)^2]VAVP, [1-(beta-mercapto-beta,beta-cyclopentamethylenepropionic acid), 2-D-(O-ethyl)tyrosine, 4-valine, 9-desglycinamide]-arginine vasopressin] ([dY](Et)FVNCPR-OH; linker N-5 via X1)
Anti-VP pA2 ([2]; Table 1): 7.77 ± 0.02 | Anti-ADH pA2 [3]: 7.78 ± 0.03
